Reference: ChEMBL document CHEMBL4834473, “Novel hydroxybenzylamine-deoxyvasicinone hybrids as anticholinesterase therapeutics for Alzheimer's disease” (Bioorg Med Chem, 2021)
Active and inactive are the calls of the source. The rule behind the calls is not given here.

What was measured:
[1] = target: Acetylcholinesterase (Electrophorus electricus, UniProt O42275); experiment: Inhibition of Electric eel AChE using acetylthiocholine iodide as substrate preincubated for 10 mins followed by addition of substrate and measured after 15 mins by Ellman's method
Sequence of Acetylcholinesterase (O42275 whole entry): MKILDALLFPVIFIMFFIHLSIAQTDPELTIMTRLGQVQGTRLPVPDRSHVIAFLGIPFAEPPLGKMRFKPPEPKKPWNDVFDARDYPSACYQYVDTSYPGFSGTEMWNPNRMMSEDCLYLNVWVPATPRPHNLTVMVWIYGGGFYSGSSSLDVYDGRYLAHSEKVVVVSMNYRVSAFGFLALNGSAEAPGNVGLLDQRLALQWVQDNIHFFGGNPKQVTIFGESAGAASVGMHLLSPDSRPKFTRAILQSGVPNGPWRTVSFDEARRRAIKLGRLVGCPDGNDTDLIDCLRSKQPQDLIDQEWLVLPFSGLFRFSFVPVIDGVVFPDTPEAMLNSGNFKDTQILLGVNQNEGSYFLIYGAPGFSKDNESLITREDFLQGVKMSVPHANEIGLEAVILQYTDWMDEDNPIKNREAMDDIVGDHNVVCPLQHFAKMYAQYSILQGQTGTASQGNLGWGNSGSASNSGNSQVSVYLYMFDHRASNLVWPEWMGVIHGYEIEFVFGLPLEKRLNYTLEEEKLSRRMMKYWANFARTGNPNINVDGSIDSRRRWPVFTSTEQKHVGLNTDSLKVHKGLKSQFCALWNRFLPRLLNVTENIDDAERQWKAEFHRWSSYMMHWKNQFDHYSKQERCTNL

[2] = target: Acetylcholinesterase (Homo sapiens) (UniProt P22303); experiment: Inhibition of AChE (unknown origin)-induced amyloid beta (1 to 42) aggregation at 1 to 5 uM measured after 24 hrs by ThT flourescence assay; details: dose 1-5 µM
Sequence of Acetylcholinesterase (Homo sapiens) (P22303 whole entry): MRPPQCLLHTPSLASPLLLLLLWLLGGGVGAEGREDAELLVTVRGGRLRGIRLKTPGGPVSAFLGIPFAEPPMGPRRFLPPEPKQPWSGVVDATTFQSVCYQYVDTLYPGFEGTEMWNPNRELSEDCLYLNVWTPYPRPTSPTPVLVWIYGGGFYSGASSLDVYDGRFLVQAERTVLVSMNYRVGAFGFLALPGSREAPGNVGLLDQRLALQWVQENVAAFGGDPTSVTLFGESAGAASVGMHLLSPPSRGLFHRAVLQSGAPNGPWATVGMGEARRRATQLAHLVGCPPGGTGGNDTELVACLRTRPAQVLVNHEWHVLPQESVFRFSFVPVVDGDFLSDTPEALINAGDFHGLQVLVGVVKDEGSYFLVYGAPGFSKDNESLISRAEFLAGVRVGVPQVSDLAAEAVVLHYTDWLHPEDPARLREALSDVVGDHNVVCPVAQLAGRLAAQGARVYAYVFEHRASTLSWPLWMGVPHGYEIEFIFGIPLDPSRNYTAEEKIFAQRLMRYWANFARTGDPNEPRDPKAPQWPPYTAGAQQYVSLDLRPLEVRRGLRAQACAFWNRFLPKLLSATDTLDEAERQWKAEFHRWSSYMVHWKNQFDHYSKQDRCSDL

[3] = target: Cholinesterase (Equus caballus, UniProt P81908); experiment: Inhibition of equine serum BChE using butyrylthiocholine iodide as substrate preincubated for 10 mins followed by addition of substrate and measured after 15 mins by Ellman's method; format: cell-free
Sequence of Cholinesterase (P81908 whole entry): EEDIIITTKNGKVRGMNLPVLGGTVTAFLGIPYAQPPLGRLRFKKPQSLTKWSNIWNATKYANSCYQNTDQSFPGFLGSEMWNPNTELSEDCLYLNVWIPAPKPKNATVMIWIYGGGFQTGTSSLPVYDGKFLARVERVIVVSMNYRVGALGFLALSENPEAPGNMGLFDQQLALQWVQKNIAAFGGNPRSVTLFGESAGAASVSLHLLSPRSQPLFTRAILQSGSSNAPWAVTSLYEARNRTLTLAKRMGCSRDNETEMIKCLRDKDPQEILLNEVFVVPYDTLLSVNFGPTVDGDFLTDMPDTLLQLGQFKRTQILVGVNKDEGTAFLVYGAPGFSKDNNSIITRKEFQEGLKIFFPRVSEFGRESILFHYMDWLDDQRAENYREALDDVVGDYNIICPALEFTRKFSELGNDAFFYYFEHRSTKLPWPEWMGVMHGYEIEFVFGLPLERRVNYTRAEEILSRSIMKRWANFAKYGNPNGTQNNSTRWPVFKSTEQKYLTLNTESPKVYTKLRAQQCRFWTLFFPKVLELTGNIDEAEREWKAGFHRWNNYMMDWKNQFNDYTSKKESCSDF

[4] = target: Amyloid-beta precursor protein (Homo sapiens, UniProt P05067); experiment: Inhibition of human amyloid beta (1 to 42) self-induced aggregation measured after 48 hrs by ThT flourescence assay
Sequence of Amyloid-beta precursor protein (P05067 whole entry): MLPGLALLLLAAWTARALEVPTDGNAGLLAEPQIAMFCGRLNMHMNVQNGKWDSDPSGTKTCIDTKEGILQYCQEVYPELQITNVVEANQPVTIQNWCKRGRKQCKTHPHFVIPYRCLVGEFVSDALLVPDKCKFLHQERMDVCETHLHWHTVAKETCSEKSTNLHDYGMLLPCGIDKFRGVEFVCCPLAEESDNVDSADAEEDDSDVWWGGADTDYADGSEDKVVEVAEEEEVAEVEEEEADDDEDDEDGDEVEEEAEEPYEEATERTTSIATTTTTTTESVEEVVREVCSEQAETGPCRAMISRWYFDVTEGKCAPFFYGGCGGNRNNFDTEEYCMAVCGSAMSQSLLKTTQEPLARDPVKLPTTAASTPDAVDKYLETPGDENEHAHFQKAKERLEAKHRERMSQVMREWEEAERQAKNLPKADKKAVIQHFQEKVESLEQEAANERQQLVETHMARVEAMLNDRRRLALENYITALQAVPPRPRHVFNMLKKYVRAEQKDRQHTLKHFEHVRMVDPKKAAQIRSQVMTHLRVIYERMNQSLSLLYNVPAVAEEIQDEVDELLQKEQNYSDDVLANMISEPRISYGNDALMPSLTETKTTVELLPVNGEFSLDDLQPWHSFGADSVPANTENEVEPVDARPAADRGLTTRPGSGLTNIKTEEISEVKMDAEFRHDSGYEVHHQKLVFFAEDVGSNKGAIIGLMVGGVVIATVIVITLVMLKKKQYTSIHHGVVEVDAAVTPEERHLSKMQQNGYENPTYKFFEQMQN

[5] = Selectivity index, ratio of IC50 for equine serum BChE to IC50 for electric eel AChE
[6] = target: Acetylcholinesterase (Electrophorus electricus) (UniProt O42275); experiment: Non-competitive/mixed inhibition of electric eel AChE using varying concentrations of acetylthiocholine iodide as substrate at 0.16 to 0.64 uM measured every 2 mins for 10 mins by Lineweaver-Burk plot analysis; details: dose 0.16-0.64 µM
Sequence of Acetylcholinesterase (Electrophorus electricus) (O42275 24-633 limits assumed): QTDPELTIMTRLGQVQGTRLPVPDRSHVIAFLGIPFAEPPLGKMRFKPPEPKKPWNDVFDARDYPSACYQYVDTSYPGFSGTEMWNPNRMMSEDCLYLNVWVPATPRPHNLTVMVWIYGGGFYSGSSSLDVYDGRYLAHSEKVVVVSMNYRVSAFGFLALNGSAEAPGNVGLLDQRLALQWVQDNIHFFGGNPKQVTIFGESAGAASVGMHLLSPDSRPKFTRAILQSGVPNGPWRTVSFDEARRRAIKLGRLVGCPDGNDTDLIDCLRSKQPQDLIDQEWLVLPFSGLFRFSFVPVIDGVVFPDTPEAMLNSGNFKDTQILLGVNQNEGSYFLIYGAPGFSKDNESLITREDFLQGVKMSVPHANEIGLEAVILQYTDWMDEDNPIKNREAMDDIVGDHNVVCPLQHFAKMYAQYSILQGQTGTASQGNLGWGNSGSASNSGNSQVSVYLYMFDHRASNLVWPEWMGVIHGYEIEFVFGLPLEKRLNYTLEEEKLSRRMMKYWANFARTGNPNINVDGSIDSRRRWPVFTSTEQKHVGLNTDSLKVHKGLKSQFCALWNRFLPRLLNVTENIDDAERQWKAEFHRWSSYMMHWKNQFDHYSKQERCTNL

O=c1c2cc(NCc3ccccc3O)ccc2nc2n1CCC2
IC50 [1]: 1.53 µM | inhibition [2]: 49% | IC50 [3]: 18.2 µM | IC50 [4]: 4.69 µM | Ratio IC50 [5]: 11.9

Cc1cc2nc3n(c(=O)c2cc1NCc1ccccc1O)CCC3
IC50 [1]: 1.58 µM | inhibition [2]: 40.2% | IC50 [3]: 18.5 µM | IC50 [4]: 5.09 µM | Ratio IC50 [5]: 11.7

Cc1cc2nc3n(c(=O)c2cc1NCc1cc(F)ccc1O)CCC3
IC50 [1]: 2.7 µM | IC50 [3]: 20.4 µM | IC50 [4]: 6.33 µM | Ratio IC50 [5]: 7.56

Cc1cc2nc3n(c(=O)c2cc1NCc1cccc(Br)c1O)CCC3
IC50 [1]: 6.35 µM | IC50 [3]: 21.6 µM | IC50 [4]: 9.27 µM | Ratio IC50 [5]: 3.4

Cc1cc2nc3n(c(=O)c2cc1NCc1cc(Br)ccc1O)CCC3
IC50 [1]: 5.27 µM | IC50 [3]: 20.8 µM | IC50 [4]: 7.37 µM | Ratio IC50 [5]: 3.95

O=c1c2cc(NCc3cc(Br)ccc3O)ccc2nc2n1CCC2
IC50 [1]: 5.51 µM | IC50 [3]: 21.5 µM | IC50 [4]: 7.63 µM | Ratio IC50 [5]: 3.9

COc1cccc(CNc2ccc3nc4n(c(=O)c3c2)CCC4)c1O
IC50 [1]: 0.9 µM | inhibition [2]: 55.1% | IC50 [3]: 16.1 µM | IC50 [4]: 4.2 µM | Ratio IC50 [5]: 17.8

O=c1c2cc(NCc3cccc(Br)c3O)ccc2nc2n1CCC2
IC50 [1]: 5.8 µM | IC50 [3]: 20.9 µM | IC50 [4]: 8.34 µM | Ratio IC50 [5]: 3.6

COc1cccc(CNc2cc3c(=O)n4c(nc3cc2C)CCC4)c1O
IC50 [1]: 0.83 µM | inhibition [2]: 55% | IC50 [3]: 16.2 µM | IC50 [4]: 4.26 µM | Ratio IC50 [5]: 19.5

Oc1c(I)cc(Cl)c2cccnc12 [CLIOQUINOL]
inhibition [2]: 11.5% | IC50 [4]: 9.8 µM

COc1ccc(CNc2cc3c(=O)n4c(nc3cc2C)CCC4)c(O)c1
inhibition [6]: Active | IC50 [1]: 0.34 µM | inhibition [2]: 72.6% | IC50 [3]: 14.6 µM | IC50 [4]: 3.22 µM | Ratio IC50 [5]: 42.9

Cc1cc2nc3n(c(=O)c2cc1NCc1ccc(Cl)cc1O)CCC3
IC50 [1]: 3.07 µM | IC50 [3]: 20.5 µM | IC50 [4]: 6.1 µM | Ratio IC50 [5]: 6.68

COc1ccc(CNc2ccc3nc4n(c(=O)c3c2)CCC4)c(O)c1
IC50 [1]: 0.38 µM | inhibition [2]: 68.7% | IC50 [3]: 15.4 µM | IC50 [4]: 3.91 µM | Ratio IC50 [5]: 40.5

O=c1c2cc(NCc3cc(F)ccc3O)ccc2nc2n1CCC2
IC50 [1]: 2.51 µM | IC50 [3]: 19.9 µM | IC50 [4]: 6.3 µM | Ratio IC50 [5]: 7.91

O=c1c2cc(NCc3ccc(Cl)cc3O)ccc2nc2n1CCC2
IC50 [1]: 4.78 µM | IC50 [3]: 21.7 µM | IC50 [4]: 7.02 µM | Ratio IC50 [5]: 4.52

O=c1c2ccccc2nc2n1CCC2 [DEOXYVASICINONE]
IC50 [1]: 24 µM | inhibition [2]: 3.83% | IC50 [3]: 25 µM
